Reference: patent US20130095059A1, “INHALED NO DONOR KMUPS DERIVATIVE PREVENTING ALLERGIC PULMONARY VASCULAR AND BRONCHIAL INFLAMMATION VIA SUPPRESSED CYTOKINES, INOS AND INFLAMMATORY CELL COUNTS IN ASTHMA MODEL” (priority 2007, published 2013)

Legend:
[1] = tested on: MMP-9; test: Short term nebulization, MMP-9 expression in lung tissues; format: in vivo, BALB/c mice; conditions: nebulization 1.0˜2.5 mM, 30 mins, without ovalbumine sensitization
Procedure: […] […] […] Three different experiments were performed on cohorts of 7˜14 mice per experimental condition.
(§1) The lung tissues were homogenized, washed with PBS and incubated in lysis buffer in addition to a protease inhibitor cocktail (Sigma, St. Louis, Mo.) to obtain extracts of lung proteins. A Western blot analysis was performed as described previously (Wu B N, et al., 2006). The samples were loaded to 10% SDS-PAGE gels and were separated at 120 V for 90 min. The blots were incubated with anti-eNOS antibody diluted at a ratio of 1:500, anti-sGCα1 antibody diluted at a ratio of 1:2000, anti-PKG antibody diluted at a ratio of 1:500, anti-VCAM-1 antibody diluted at a ratio of 1:500, anti-ICAM-1 antibody diluted at a ratio of 1:500, and anti-MMP-9 antibody diluted at a ratio of 1:600 overnight at 4° C. The membranes were stripped and re-blotted with anti-actin antibody (Sigma, St. Louis, Mo.) to verify the equal loading of protein in each lane.

[2] = tested on: PASMCs; test: Cell migration (wound) assay of PASMCs; format: cell-based, Wistar rats; conditions: 10-100 μM; 5-HT 10 μM 24 h
Procedure: Migration of PASMCs was assessed using a wound assay model in which cells grown to confluence on 6 well dishes were scraped with the edge of a fine razor. The wound edge was viewed and photographed under a microscope (Nikon, Tokyo, Japan) before and after culture for 24 h in serum-free DMEM in the presence of 5HT (10 μM). The distance the cells migrated from the wound surface was then manually measured.

[3] = biological target: T1, 5-HT2B receptor (Homo sapiens, UniProt P41595); test: Displacement of radioligand binding, 5-HT2B
T1 construct: full length clones of 5-HT2A, 5-HT2B and 5-HT2C receptor were prepared from CHO-K1 cells; expressed in transfected cells; host or cells: CHO-K1
Procedure: Displacement of Radioligand Binding Assay
As described previously, full length clones of 5-HT2A, 5-HT2B and 5-HT2C receptor were prepared from CHO-K1 cells. […] IC50 represents the concentration of competing ligand which displaces 50% of the specific binding of the radioligand. Ki values for competition curves were calculated using the Cheng-Prusoff equation (Cheng, 2001).

[4] = tested on: eNOS; test: Short term nebulization, eNOS expression in lung tissues; format: in vivo, BALB/c mice; conditions: nebulization 1.0˜2.5 mM, 30 mins, without ovalbumine sensitization
Procedure: […] Aerosols were generated by ultrasonic nebulizer from day 21 to 27. Mice were sacrificed on day 28, (Cataldo D D, et al., 2002). Three different experiments were performed on cohorts of 7˜14 mice per experimental condition.
as §1

[5] = tested on: iNOS; test: Ovalbumine model, iNOS expression; format: in vivo, BALB/c mice; conditions: 28-day experiment; nebulization
[6] = tested on: NO; test: Nitric oxide production in HPAEC (Griess); format: cell-based, human; conditions: 10 μM, 24 h before adding 5-HT
Procedure: Production of NO in HPAEC was determined using the Griess method. The three step Greiss test converts nitrate (NO3^−) into nitrite (NO2^−) giving a total NO2^− concentration from a standard calibration curve. HPAEC were incubated with or without KMUP-1 (10 μM) for 24 h and then incubated with 5-HT (10 μmol/L) for 30 min. Media samples from HPAEC were taken and the NO concentration was determined. Six independent experiments were carried out and data are reported as the mean mean±SEM.

[7] = MCT-induced chronic PAH, mean pulmonary arterial pressure; format: in vivo, Wistar rats; conditions: 5 mg/kg/day p.o. and 1 mg/kg/day i.p. for 21 days
Procedure: The experiments were performed in adult male Wistar rats (300 to 350 g) in accordance with institutional guidelines after approval by the ethical review committee. PAH development and pulmonary expression of 5-HTT were examined in rats after 60 mg/kg single injection (i.p.) of monocrotaline (MCT). To assess the potential preventive effect of KMUP-1 on MCT-induced PAH and associated proliferation, we assigned rats at random to 2 groups of 8 animals which received KMUP-1 at 5 mg/kg/day p.o or 1 mg/kg/day i.p. All treatments were given once a day for 3 weeks after a single MCT injection (60 mg/kg i.p.) (Abe et al., 2004). On day 21, rats were anesthetized and pulmonary artery blood pressure (MPAP) was recorded as previously described. Lung tissues were dissected for Western blotting and immunohistochemistry.

[8] = tested on: NOx; test: Ovalbumine model, NO metabolites (NOx) in BALF; format: in vivo, BALB/c mice; conditions: 24 hrs after last challenge; basal 65.4±8.2, ovalbumine 162.8±15.7
Procedure: In this long-term experiment, 6-8 week old BALB/c female mice were sensitized on days 1 and 8 by intra-peritoneal injection (i.p.) of ovalbumine (10 μg) (Sigma-Aldrich, Schnelldorf, Germany) adsorbed to 2 mg aluminum hydroxide (AlumInject; Perbio, Erembodegem, Belgium). Mice were divided into three groups. In Group 1, a control group was only exposed to saline nebulization by aerosol. The other 2 groups were subjected to ovalbumine (1%) nebulization. Before each challenge with ovalbumine, mice were either exposed to saline nebulization (Group 2) or KMUP-1 nebulization (5 mM) for 30 min by aerosol (Group 3).
The remaining BALF was centrifuged (900 g, 1200 rpm, 10 min) and the supernatant frozen (−80° C.) until determination of nitrite and nitrate by the Griess reaction. BALF (100 μL) was incubated (37° C.) for 30 min with N-2-hydroxyethylpiperazine-N′-ethane sulphonic acid buffer (HEPES) (50 mM, pH 7.4), flavin adenine dinucleotide (5 μM), nicotinamide adenine dinucleotide phosphate (0.1 mM), distilled water (290 μl), and nitrate reductase (0.2 U/ml) for the conversion of nitrate into nitrite. […] The samples were then incubated (25° C., 10 min) with Griess reagent [N-(1-naphthyl)-ethylenediamine: 0.2% (w/v), sulphanilamide: 2% (w/v), solubilized in double-distilled water: 95% and phosphoric acid: 5% (v/v)] and the absorbance measured at 540 nm. […]

T1 sequence (P41595 whole entry): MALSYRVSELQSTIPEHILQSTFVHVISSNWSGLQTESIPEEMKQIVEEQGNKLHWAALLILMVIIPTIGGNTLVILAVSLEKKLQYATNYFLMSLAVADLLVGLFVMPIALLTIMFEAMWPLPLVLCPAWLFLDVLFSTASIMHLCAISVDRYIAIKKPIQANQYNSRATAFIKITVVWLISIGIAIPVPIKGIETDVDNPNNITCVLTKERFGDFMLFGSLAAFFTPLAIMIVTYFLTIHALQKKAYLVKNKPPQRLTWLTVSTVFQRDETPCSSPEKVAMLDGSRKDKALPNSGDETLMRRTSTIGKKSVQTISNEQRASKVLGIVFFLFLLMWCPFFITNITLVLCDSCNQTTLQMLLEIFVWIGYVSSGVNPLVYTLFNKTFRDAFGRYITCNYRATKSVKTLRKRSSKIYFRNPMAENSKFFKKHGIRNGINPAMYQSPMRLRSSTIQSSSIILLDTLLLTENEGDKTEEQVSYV

Cn1c(=O)c2c(ncn2CCN2CCN(c3ccccc3Cl)CC2)n(C)c1=O [KMUP-1, 7-[2-[4-(2-chlorophenyl)piperazinyl]ethyl]-1,3-dimethylxanthine]
MMP-9 expression in mice lung tissues [1]: decreased
5-HT-induced PASMCs migration [2]: concentration-dependently suppressed
ligand specificity of 5-HT2B receptor versus 5-HT2A and 5-HT2C receptors [3]: more selective
IC50 ([3]; [^3H]-LSD, human recombinant CHO-K1 cells): 40 nM
Ki ([3]; [^3H]-LSD, human recombinant CHO-K1 cells, Cheng-Prusoff): 25.4 nM
eNOS expression in mice lung tissues [4]: dose-dependently increased
increased iNOS expression by ovalbumine sensitization [5]: significantly reduced
release of NO compared to 5-HT treatment alone [6]: raised
MCT-induced increases in mean pulmonary arterial pressure (MPAP) [7]: significantly reduced
levels of NOx (nitrate+nitrite) in BALF [8]: 86.3 ± 17.3 µM
